Laboratory results published in ChEMBL document CHEMBL3991601, “The target landscape of clinical kinase drugs” (Science, 2017).
Active and inactive are the calls of the source. Rule as the data show it, for most assays here: actives have a measured Kd and inactives only a lower limit.

Columns and labels:
[1] = biological target: T1, Serine/threonine-protein kinase Chk1 (Homo sapiens, UniProt O14757)
T1 sequence (O14757 whole entry): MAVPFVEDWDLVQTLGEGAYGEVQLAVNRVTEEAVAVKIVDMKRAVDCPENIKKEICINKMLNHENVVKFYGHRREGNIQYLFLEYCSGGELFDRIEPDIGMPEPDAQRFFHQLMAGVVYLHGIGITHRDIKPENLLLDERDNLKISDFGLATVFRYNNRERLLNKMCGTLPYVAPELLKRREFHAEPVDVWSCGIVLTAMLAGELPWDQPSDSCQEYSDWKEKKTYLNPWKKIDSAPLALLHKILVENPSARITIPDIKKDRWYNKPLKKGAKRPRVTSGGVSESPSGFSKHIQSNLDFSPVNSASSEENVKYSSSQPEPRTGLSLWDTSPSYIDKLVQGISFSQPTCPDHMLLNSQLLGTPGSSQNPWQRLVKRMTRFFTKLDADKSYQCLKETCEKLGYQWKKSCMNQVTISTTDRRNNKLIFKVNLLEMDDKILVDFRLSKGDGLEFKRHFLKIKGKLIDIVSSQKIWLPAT

[2] = biological target: Insulin-like growth factor 1 receptor (Homo sapiens, UniProt P08069)
Chain of Insulin-like growth factor 1 receptor (P08069 31-736 limits assumed): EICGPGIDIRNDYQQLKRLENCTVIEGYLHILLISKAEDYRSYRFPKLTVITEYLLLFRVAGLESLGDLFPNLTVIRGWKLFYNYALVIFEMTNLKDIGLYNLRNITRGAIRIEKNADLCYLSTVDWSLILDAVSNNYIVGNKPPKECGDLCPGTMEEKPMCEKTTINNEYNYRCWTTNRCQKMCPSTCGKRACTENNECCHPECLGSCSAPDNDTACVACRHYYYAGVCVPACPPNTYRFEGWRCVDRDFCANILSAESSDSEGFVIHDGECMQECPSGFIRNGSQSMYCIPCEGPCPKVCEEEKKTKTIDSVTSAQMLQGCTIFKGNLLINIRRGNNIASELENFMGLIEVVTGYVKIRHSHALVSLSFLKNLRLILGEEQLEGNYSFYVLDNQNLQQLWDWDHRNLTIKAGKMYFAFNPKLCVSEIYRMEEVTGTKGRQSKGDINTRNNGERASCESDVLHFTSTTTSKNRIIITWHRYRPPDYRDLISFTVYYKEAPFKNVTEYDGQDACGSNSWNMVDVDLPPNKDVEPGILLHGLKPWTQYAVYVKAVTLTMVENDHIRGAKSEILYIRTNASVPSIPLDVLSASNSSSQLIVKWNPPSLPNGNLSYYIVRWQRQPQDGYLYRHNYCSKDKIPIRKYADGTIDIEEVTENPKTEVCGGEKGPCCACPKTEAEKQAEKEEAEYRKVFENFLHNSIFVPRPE
Chain of Insulin-like growth factor 1 receptor (P08069 741-1367 limits assumed): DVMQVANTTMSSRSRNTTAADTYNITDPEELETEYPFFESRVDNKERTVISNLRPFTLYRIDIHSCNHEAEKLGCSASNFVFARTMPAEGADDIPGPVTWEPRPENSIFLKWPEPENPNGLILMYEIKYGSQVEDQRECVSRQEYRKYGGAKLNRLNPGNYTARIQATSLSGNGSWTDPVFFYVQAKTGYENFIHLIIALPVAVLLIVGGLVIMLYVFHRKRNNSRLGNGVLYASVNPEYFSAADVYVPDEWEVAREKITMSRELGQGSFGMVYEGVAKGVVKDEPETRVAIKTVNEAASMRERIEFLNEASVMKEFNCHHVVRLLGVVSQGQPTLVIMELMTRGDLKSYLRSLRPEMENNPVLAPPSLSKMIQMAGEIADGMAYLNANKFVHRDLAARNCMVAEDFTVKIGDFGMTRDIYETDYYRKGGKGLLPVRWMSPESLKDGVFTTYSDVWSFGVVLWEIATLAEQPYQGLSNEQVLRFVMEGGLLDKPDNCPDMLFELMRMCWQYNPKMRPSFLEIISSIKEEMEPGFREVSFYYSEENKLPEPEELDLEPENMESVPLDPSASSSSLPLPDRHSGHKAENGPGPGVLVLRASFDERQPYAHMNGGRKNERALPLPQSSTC

[3] = biological target: T2, Mitogen-activated protein kinase kinase kinase 3 (Homo sapiens, UniProt Q99759)
T2 sequence (Q99759 whole entry): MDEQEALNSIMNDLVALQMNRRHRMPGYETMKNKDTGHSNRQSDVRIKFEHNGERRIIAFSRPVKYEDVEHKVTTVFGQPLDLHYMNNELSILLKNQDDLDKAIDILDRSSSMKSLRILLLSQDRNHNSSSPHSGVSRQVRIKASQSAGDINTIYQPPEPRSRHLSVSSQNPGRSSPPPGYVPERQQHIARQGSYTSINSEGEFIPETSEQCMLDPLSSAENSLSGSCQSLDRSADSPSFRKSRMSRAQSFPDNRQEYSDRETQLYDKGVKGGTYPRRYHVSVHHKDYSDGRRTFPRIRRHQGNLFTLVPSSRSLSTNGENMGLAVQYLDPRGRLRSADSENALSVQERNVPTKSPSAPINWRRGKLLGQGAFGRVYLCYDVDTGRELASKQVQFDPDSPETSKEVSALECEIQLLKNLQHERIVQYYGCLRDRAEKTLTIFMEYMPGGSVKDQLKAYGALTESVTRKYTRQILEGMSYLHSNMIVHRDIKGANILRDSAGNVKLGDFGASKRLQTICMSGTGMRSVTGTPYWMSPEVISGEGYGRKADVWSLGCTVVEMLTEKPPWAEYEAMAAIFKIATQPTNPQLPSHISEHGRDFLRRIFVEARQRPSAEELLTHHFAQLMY

[4] = biological target: Mitogen-activated protein kinase kinase kinase kinase 1 (Homo sapiens, UniProt Q92918)
Chain of Mitogen-activated protein kinase kinase kinase kinase 1 (Q92918 whole entry): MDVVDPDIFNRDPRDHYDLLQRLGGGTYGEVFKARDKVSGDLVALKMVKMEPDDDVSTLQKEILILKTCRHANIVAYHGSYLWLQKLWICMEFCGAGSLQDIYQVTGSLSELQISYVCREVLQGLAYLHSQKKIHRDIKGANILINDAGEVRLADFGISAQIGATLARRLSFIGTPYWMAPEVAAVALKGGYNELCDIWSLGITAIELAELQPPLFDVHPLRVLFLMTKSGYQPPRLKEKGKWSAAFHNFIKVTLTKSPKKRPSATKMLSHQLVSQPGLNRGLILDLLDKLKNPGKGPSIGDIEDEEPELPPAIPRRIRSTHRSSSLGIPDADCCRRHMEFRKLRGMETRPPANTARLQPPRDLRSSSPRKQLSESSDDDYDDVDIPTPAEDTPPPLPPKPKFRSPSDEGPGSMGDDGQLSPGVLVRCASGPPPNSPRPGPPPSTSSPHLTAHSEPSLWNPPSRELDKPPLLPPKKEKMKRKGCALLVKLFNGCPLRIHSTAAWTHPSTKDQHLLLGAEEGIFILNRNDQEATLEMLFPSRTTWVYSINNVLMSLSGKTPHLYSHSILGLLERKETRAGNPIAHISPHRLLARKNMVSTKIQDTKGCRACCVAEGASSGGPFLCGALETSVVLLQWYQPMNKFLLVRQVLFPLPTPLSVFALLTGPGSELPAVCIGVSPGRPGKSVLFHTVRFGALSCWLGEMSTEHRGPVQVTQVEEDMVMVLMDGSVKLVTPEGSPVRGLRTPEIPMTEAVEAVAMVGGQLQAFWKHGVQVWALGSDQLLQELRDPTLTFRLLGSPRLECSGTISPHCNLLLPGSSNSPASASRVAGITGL

[5] = biological target: NADH dehydrogenase [ubiquinone] 1 alpha subcomplex subunit 13 (Homo sapiens, UniProt Q9P0J0)
Chain of NADH dehydrogenase [ubiquinone] 1 alpha subcomplex subunit 13 (Q9P0J0 whole entry, one chain of several): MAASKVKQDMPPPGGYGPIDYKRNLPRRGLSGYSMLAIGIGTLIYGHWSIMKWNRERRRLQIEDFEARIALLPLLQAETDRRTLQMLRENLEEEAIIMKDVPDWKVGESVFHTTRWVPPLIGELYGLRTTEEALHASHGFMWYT

[6] = biological target: T3, Serine/threonine-protein kinase Nek9 (Homo sapiens, UniProt Q8TD19)
T3 sequence (Q8TD19 whole entry): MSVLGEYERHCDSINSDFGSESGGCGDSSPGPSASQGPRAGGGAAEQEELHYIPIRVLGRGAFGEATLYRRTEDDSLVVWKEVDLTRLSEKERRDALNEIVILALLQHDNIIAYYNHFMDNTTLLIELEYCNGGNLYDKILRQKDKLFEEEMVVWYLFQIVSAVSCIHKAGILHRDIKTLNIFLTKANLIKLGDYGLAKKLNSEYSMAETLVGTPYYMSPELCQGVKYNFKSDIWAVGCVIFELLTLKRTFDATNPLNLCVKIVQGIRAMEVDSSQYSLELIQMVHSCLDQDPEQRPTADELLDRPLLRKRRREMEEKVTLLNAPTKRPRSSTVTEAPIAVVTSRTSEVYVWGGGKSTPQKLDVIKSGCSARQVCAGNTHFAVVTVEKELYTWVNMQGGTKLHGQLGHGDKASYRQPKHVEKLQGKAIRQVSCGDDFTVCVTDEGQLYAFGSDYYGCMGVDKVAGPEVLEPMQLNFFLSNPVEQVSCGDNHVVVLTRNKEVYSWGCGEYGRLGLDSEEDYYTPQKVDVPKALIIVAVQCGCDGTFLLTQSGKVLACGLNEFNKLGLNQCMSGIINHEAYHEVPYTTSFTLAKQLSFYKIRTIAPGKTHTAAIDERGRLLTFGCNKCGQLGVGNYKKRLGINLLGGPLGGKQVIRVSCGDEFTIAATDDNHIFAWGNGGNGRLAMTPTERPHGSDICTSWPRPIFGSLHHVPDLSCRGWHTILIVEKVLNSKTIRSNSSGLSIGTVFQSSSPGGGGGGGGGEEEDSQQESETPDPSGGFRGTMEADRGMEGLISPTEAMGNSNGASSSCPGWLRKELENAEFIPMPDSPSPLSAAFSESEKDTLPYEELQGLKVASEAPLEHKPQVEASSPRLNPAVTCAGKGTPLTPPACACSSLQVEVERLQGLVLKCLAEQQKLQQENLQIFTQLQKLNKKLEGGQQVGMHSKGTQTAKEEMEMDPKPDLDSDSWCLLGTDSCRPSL

[7] = biological target: Serine/threonine-protein kinase N2 (Homo sapiens, UniProt Q16513)
Chain of Serine/threonine-protein kinase N2 (Q16513 whole entry): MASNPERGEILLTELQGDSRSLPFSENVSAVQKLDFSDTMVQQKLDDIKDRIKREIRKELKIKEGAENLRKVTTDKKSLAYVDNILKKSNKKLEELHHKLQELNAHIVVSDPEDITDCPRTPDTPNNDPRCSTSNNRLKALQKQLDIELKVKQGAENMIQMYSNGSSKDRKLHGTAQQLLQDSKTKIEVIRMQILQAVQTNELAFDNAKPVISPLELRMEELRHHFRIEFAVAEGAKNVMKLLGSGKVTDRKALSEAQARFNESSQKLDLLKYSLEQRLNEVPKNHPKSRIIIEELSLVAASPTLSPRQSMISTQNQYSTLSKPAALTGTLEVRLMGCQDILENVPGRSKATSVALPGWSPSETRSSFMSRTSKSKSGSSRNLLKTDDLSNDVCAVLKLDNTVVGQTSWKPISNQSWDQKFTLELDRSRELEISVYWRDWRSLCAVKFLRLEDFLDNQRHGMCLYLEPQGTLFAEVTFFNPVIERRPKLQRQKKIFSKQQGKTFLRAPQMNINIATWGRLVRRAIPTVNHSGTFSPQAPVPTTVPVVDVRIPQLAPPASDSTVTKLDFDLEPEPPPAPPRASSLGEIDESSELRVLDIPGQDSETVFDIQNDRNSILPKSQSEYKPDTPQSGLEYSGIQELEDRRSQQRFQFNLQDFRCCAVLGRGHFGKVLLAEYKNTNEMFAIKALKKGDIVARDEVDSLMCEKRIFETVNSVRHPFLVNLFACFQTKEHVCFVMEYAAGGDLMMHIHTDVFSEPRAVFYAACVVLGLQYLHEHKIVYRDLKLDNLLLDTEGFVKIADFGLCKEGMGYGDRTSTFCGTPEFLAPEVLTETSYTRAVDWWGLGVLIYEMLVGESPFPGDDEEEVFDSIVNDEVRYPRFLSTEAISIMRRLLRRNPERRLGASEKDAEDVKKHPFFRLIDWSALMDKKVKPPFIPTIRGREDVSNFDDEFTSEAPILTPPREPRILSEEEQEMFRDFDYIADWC

TGF-beta receptor type-1 = biological target: T4, TGF-beta receptor type-1 (Homo sapiens, UniProt P36897)
T4 sequence (P36897 whole entry): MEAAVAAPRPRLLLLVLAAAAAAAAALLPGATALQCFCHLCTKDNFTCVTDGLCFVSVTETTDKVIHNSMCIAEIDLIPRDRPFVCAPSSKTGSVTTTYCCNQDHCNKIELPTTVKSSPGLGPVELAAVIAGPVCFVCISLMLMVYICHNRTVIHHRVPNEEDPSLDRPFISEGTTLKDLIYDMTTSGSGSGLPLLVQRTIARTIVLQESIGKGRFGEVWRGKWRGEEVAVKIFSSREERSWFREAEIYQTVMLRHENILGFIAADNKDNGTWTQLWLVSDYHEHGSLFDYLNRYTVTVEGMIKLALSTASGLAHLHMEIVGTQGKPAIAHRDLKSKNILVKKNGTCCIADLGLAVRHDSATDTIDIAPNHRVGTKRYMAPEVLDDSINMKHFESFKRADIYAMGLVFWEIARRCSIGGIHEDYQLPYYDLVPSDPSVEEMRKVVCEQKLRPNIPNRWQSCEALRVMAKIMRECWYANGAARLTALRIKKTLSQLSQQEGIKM

[8] = biological target: TRAF2 and NCK-interacting protein kinase (Homo sapiens, UniProt Q9UKE5)
Chain of TRAF2 and NCK-interacting protein kinase (Q9UKE5 whole entry): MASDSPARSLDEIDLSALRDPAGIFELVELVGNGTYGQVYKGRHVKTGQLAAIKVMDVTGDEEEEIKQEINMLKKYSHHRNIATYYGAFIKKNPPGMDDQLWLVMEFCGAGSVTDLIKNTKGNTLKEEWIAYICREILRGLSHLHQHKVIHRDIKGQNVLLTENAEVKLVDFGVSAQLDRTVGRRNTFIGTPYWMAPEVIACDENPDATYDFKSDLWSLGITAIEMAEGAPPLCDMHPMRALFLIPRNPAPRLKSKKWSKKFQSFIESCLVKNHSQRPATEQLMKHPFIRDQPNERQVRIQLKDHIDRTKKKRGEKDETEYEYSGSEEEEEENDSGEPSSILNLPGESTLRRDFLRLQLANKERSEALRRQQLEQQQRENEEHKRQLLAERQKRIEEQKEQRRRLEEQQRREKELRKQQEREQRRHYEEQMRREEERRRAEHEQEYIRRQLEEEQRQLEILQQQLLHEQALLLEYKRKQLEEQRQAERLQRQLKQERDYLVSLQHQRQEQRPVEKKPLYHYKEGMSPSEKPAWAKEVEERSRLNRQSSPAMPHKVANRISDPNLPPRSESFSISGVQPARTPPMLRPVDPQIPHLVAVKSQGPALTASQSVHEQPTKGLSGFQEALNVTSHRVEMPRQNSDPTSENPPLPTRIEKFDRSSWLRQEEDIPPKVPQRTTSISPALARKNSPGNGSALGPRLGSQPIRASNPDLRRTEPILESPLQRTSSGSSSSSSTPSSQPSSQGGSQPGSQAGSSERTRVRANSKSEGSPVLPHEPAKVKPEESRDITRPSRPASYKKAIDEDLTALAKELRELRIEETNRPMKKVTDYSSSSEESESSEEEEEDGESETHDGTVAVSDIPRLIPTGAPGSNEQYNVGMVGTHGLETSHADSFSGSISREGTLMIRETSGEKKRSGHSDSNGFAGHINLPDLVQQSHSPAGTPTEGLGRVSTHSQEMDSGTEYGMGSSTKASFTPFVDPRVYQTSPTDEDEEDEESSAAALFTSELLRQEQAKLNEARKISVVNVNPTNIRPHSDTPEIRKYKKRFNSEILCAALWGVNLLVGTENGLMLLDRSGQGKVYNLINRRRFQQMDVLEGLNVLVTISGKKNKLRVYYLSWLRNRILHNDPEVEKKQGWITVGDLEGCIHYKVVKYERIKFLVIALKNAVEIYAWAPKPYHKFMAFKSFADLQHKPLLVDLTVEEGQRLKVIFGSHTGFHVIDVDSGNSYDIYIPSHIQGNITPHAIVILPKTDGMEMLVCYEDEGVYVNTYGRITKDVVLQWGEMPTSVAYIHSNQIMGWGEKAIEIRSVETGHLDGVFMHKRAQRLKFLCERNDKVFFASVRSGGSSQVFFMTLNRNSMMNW
Also: in the data inactive means no Kd found up to 30 µM.

SMILES | Kd [1] | Kd [2] | Kd [3] | Kd [4] | Kd [5] | Kd [7] | Kd (TGF-beta receptor type-1) | Kd [8] | Kd [6]
O=C(NC[C@H](O)CO)c1ccncc1Nc1ccc(I)cc1F [PIMASERTIB] | > 30 µM (inactive) | > 30 µM (inactive) | > 30 µM (inactive) | > 30 µM (inactive) | > 30 µM (inactive) | > 30 µM (inactive) | > 30 µM (inactive) | > 30 µM (inactive) | > 30 µM (inactive)
O=C(NOC[C@H](O)CO)c1ccc(F)c(F)c1Nc1ccc(I)cc1F [MIRDAMETINIB] | > 30 µM (inactive) | > 30 µM (inactive) | > 30 µM (inactive) | > 30 µM (inactive) | > 30 µM (inactive) | > 30 µM (inactive) | > 30 µM (inactive) | > 30 µM (inactive) | > 30 µM (inactive)
COc1cc(Nc2ncc(F)c(Nc3ccc4c(n3)N(COP(=O)(O)O)C(=O)C(C)(C)O4)n2)cc(OC)c1OC [FOSTAMATINIB] | > 30 µM (inactive) | > 30 µM (inactive) | > 30 µM (inactive) | > 30 µM (inactive) | > 30 µM (inactive) | > 30 µM (inactive) | > 30 µM (inactive) | > 30 µM (inactive) | 0.041 µM (active)
FC(F)(F)c1ccc(CNc2ccc(Cc3c[nH]c4ncc(Cl)cc34)cn2)cn1 [PEXIDARTINIB] | > 30 µM (inactive) | > 30 µM (inactive) | > 30 µM (inactive) | > 30 µM (inactive) | > 30 µM (inactive) | > 30 µM (inactive) | > 30 µM (inactive) | > 30 µM (inactive) | > 30 µM (inactive)
S=C(NCc1ccc2c(c1)OCO2)N1CCN(c2ncnc3c2oc2ccccc23)CC1 [AMUVATINIB] | > 30 µM (inactive) | > 30 µM (inactive) | > 30 µM (inactive) | > 30 µM (inactive) | > 30 µM (inactive) | > 30 µM (inactive) | > 30 µM (inactive) | > 30 µM (inactive) | > 30 µM (inactive)
C=CC(=O)Nc1cccc(Nc2nc(Nc3ccc(N4CCN(C(C)=O)CC4)cc3OC)ncc2C(F)(F)F)c1 [ROCILETINIB] | > 30 µM (inactive) | > 30 µM (inactive) | > 30 µM (inactive) | > 30 µM (inactive) | > 30 µM (inactive) | > 30 µM (inactive) | > 30 µM (inactive) | > 30 µM (inactive) | > 30 µM (inactive)
C[C@@H]1COC(Nc2ccc3ncnc(Nc4ccc(OCc5nccs5)c(Cl)c4)c3c2)=N1 [VARLITINIB] | > 30 µM (inactive) | > 30 µM (inactive) | > 30 µM (inactive) | > 30 µM (inactive) | > 30 µM (inactive) | > 30 µM (inactive) | > 30 µM (inactive) | > 30 µM (inactive) | > 30 µM (inactive)
CCN1CCN(Cc2ccc(Nc3ncc(F)c(-c4cc(F)c5nc(C)n(C(C)C)c5c4)n3)nc2)CC1 [ABEMACICLIB] | > 30 µM (inactive) | > 30 µM (inactive) | > 30 µM (inactive) | > 30 µM (inactive) | > 30 µM (inactive) | > 30 µM (inactive) | > 30 µM (inactive) | > 30 µM (inactive) | > 30 µM (inactive)
COc1cc(F)c(F)c(Nc2ccc(I)cc2F)c1NS(=O)(=O)C1(C[C@H](O)CO)CC1 [REFAMETINIB] | 0.439 µM (active) | > 30 µM (inactive) | > 30 µM (inactive) | > 30 µM (inactive) | > 30 µM (inactive) | > 30 µM (inactive) | > 30 µM (inactive) | > 30 µM (inactive) | > 30 µM (inactive)
Cc1c(NC(=O)OC[C@@H]2COCCN2)cn2ncnc(Nc3ccc4c(cnn4Cc4cccc(F)c4)c3)c12 [AC-480] | > 30 µM (inactive) | > 30 µM (inactive) | > 30 µM (inactive) | > 30 µM (inactive) |  | > 30 µM (inactive) | > 30 µM (inactive) | > 30 µM (inactive) | > 30 µM (inactive)

Continued, in another order:

Kd [1] | Kd [2] | Kd [3] | Kd [4] | Kd [5] | Kd [7] | Kd (TGF-beta receptor type-1) | Kd [8] | SMILES | Kd [6]
> 30 µM (inactive) | > 30 µM (inactive) | > 30 µM (inactive) | > 30 µM (inactive) | > 30 µM (inactive) | > 30 µM (inactive) | > 30 µM (inactive) | > 30 µM (inactive) | O=C(Nc1ccc(OC(F)(F)F)cc1)c1sccc1NCc1ccnc2ccccc12 [OSI-930] | > 30 µM (inactive)
> 30 µM (inactive) | > 30 µM (inactive) | > 30 µM (inactive) | > 30 µM (inactive) | > 30 µM (inactive) | > 30 µM (inactive) | > 30 µM (inactive) | > 30 µM (inactive) | Cc1cc(Nc2nc(N[C@@H](C)c3ncc(F)cn3)ncc2Cl)n[nH]1 [AZD-1480] | > 30 µM (inactive)
> 30 µM (inactive) | > 30 µM (inactive) | > 30 µM (inactive) | > 30 µM (inactive) |  | > 30 µM (inactive) | > 30 µM (inactive) | > 30 µM (inactive) | Cn1c(=O)c(F)c(Nc2ccc(I)cc2F)c2c(=O)n(C[C@@H](O)CO)cnc21 [TAK-733] | > 30 µM (inactive)
1.87 µM (active) | > 30 µM (inactive) | 0.546 µM (active) | > 30 µM (inactive) |  | > 30 µM (inactive) | 1.23 µM (active) | > 30 µM (inactive) | COc1cccc(Nc2ncnn3ccc(CN4CC[C@@H](N)[C@H](O)C4)c23)c1 [BMS-690514] | > 30 µM (inactive)
> 30 µM (inactive) | > 30 µM (inactive) | > 30 µM (inactive) | > 30 µM (inactive) |  | > 30 µM (inactive) | > 30 µM (inactive) | > 30 µM (inactive) | CCOc1ccn(-c2ccc(F)cc2)c(=O)c1C(=O)Nc1ccc(Oc2ccnc(N)c2Cl)c(F)c1 [BMS-777607] | > 30 µM (inactive)
